Measured values as given in US9763969B2, “Treatment of inflammatory conditions with hyaluronan disaccharide” (CEDARS-SINAI MEDICAL CENTER, priority 2013, dated 2017).

B1: GBS hyaluronidase: purified hyaluronidase from Group B Streptococcus (S. agalactiae) that degrades HA to a disaccharide (protein, UniProt Q53591 41-984, looked up)
Hyaluronate lyase: WIDKENTADKSPIIQRTEQGQVSLSSDKGFRGAVTQKVNIDPTKKYEVKFDIETSNKAGQAFLRIMEKKDNNTRLWLSEMTSGTTNKHTLTKIYNPKLNVSEVTLELYYEKGTGSATFDNISMKAKGPKDSEHPQPVTTQIEESVNTALNKNYVFNKADYQYTLTNPSLGKIVGGILYPNATGSTTVKISDKSGKIIKEVPLSVTASTEDKFTKLLDKWNDVTIGNHVYDTNDSNMQKINQKLDETNAKNIKTIKLDSNHTFLWKDLDNLNNSAQLTATYRRLEDLAKQITNPHSTIYKNEKAIRTVKESLAWLHQNFYNVNKDIEGSANWWDFEIGVPRSITATLALMNNYFTDAEIKTYTDPIEHFVPDAGYFRKTLDNPFKALGGNLVDMGRVKIIEGLLRKDNTIIEKTSHSLKNLFTTATKAEGFYADGSYIDHTNVAYTGAYGNVLIDGLTQLLPIIQETDYKISNQELDMVYKWINQSFLPLIVKGELMDMSRGRSISREAASSHAAAVEVLRGFLRLANMSNEERNLDLKSTIKTIITSNKFYNVFNNLKSYSDIANMNKMLNDSTVATKPLKSNLSTFNSMDRLAYYNAEKDFGFALSLHSKRTLNYEGMNDENTRDWYTGDGMFYLYNSDQSHYSNHFWPTVNPYKMAGTTEKDAKREDTTKEFMSKHSKDAKEKTGQVTGTSDFVGSVKLNDHFALAAMDFTNWDRTLTAQKGWVILNDKIVFLGSNIKNTNGIGNVSTTIDQRKDDSKTPYTTYVNGKTIDLKQASSQQFTDTKSVFLESKEPGRNIGYIFFKNSTIDIERKEQTGTWNSINRTSKNTSIVSNPFITISQKHDNKGDSYGYMMVPNIDRTSFDKLANSKEVELLENSSKQQVIYDKNSQTWAVIKHDNQESLINNQFKMNKAGLYLVQKVGNDYQNVYYQPQTMTKTDQLAI

Tests used:
macrophage = macrophage stimulation assay, Pam3csk4 induced TNF-α secretion; assay type: cell-based; details: FIG. 3C; for Pam3csk4 induced TNF-α secretion: TLR2 agonist Pam3csk4
Source text: (§1) FIG. 3 depicts, in accordance with an embodiment of the invention, in vitro anti-inflammatory properties of GBS hyaluronidase. A. Bio-Gel P-4 chromatography of hyaluronidase digestion mixture following digestion with GBS, bovine testis, or Streptomyces hyaluronlyticus hyaluronidase. B. Digestion of HA by GBS hyaluronidase leads to suppressed inflammation. C. HA disaccharide inhibits Pam3csk4 induced TNFα secretion.
(§2) Since bovine hyaluronidase degrades HA to 4-16mers, the inventors asked whether subsequent degradation with GBS hyaluronidase would abrogate induction of TNF-α. Indeed that is what the inventors found (FIG. 3B right). Because the major product of GBS hyaluronidase enzymatic activity is diHA (disaccharide), the inventors also evaluated the direct effect of DiHA on TNF-α secretion induced by a TLR2 agonist Pam3csk4.

TLR4 = TLR4 reporter construct in HEK cells; assay type: cell-based; details: TLR4 agonist LPS, FIG. 12A
Procedure: (§3) FIG. 12 depicts, in accordance with an embodiment of the invention, HA disaccharide reduces TLR 2 and 4 (A), but not TLR9 (B) signaling. HEK cells were transfected with TLR2, 4, and 9 reporter constructs. The cells were incubated with TLR2 agonist (Pam3), TL4 agonist (LPS), or TLR9 agonist (Cpg) with or without hyaluronan disaccharide. Activation of the reporter genes at 4 h was measured.

[1] = test system: bone marrow derived macrophages; assay: macrophage stimulation assay, LPS or undigested hyaluronan with hyaluronan disaccharide; assay type: cell-based, mice
Procedure: FIG. 6 depicts, in accordance with an embodiment of the invention, hyaluronan disaccharide has an anti-inflammatory property. Hyaluronan disaccharide was co-incubated with LPS or undigested hyaluronan in a macrophage stimulation assay. Hyaluronan disaccharide reduces TNF-α induction by LPS or undigested hyaluronan.
FIG. 11 depicts, in accordance with an embodiment of the invention, hyaluronan dimers are not inert. Bone marrow derived macrophages from WT mice were incubated with LPS and various concentrations of hyaluronan disaccharide. TNF-α at 18 h was measured.

acute lung injury = assay: LPS acute lung injury, intratracheal; assay type: in vivo; details: mice, 5 micrograms LPS intratracheally, 100 micrograms disaccharide, 24 h; FIG. 14
Procedure: FIG. 14 depicts, in accordance with an embodiment of the invention, HA disaccharide decreases acute lung injury. Mice were injected intratracheally with 5 micrograms of LPS, along with PBS, Hyaluronan disaccharide (100 micrograms) or GBS enzyme (1 mg). At 24 h, the mice were sacrificed and the lungs were analyzed for histology (F&G) and cytokines and chemokines (A-E).

TLR9 = TLR9 reporter construct in HEK cells; assay type: cell-based; details: TLR9 agonist Cpg, FIG. 12B
Procedure: as §3

TLR2 = TLR2 reporter construct in HEK cells; assay type: cell-based; details: TLR2 agonist Pam3, FIG. 12A
Procedure: as §3

[2] = test system: bone marrow derived macrophages; assay: hyaluronan predigested with GBS hyaluronidase, then stimulation of macrophages; assay type: cell-based
Source text: FIG. 7 depicts, in accordance with an embodiment of the invention, Group B streptococcal hyaluronidase has an anti-inflammatory property. Hyaluronan was predigested with purified GBS hyaluronidase or PBS, and then transferred to a culture of bone marrow derived macrophages.
(§4) FIG. 8 depicts, in accordance with an embodiment of the invention, GBS hyaluronidase reduces hyaluronan to dimers and dampens inflammation. HPLC profile of hyaluronan fragments generated by bovine hyaluronidase versus Group B streptococcus (GBS) hyaluronidase (A). Stimulatory hyaluronan fragments (4-16mers) were digested with GBS hyaluronidase for 4 or 15 hours (B).
as §2

[3] = hyaluronidase digestion of HA, fragment sizes (Bio-Gel P-4 chromatography / HPLC); assay type: biochemical; details: FIG. 3A
Source text: as §1, §4, §2

| Molecule | immunostimulatory capacity (macrophage) | Pam3csk4 induced TNF-α secretion (macrophage; listed as HA disaccharide) | Pam3csk4 induced TNF-α secretion (macrophage; listed as diHA) | TLR4 signaling (reporter gene activation at 4 h) (TLR4) | TNF-α at 18 h with LPS and various concentrations of hyaluronan disaccharide ([1]; bone marrow derived macrophages from WT mice, FIG. 11) | TNF-α induction by LPS ([1]; co-incubated with LPS, FIG. 6) | TNF-α induction by undigested hyaluronan ([1]; co-incubated with undigested hyaluronan, FIG. 6) | acute lung injury (acute lung injury) | TLR9 signaling (reporter gene activation at 4 h) (TLR9) | TLR2 signaling (reporter gene activation at 4 h) (TLR2) | TNF-α stimulation by hyaluronan ([2]; hyaluronan predigested with purified GBS hyaluronidase or PBS, FIG. 7) | cytokine production ([2]; stimulatory hyaluronan fragments (4-16mers) digested for 4 or 15 hours, FIG. 8B) | induction of TNF-α by HA degraded with bovine hyaluronidase ([2]; subsequent degradation with GBS hyaluronidase, FIG. 3B right) | HA degradation product (fragment size) [3] |
| --- | --- | --- | --- | --- | --- | --- | --- | --- | --- | --- | --- | --- | --- | --- |
| hyaluronan disaccharide | no immunostimulatory capacity | inhibits | partially inhibited | reduces | not inert | reduces | reduces | decreases | not | reduces |  |  |  |  |
| B1 |  |  |  |  |  |  |  |  |  |  | significantly reduces | reduces cytokine production | abrogate | a single product—a disaccharide |
